In ChEMBL document CHEMBL4715901, “Degradation of Signal Transducer and Activator of Transcription Proteins in Cancer Therapeutics” (ACS Med Chem Lett, 2021):

Key:
[1] = biological target: Protein cereblon/Signal transducer and activator of transcription 3 (Homo sapiens, UniProt P40763+Q96SW2); experiment: Protac activity at E3 ubiquitin ligase/STAT3 in human MOLM-16 cells assessed as degradation of STAT3 incubated for 4 hrs by fluorescent immunoblotting analysis; assay type: cell-based
[2] = biological target: Protein cereblon/Signal transducer and activator of transcription 1-alpha/beta (Homo sapiens, UniProt P42224+Q96SW2); experiment: Protac activity at E3 ubiquitin ligase/STAT1 in human MOLM-16 cells assessed as degradation of STAT1 incubated for 4 hrs by fluorescent immunoblotting analysis; assay type: cell-based
Chain of Protein cereblon/Signal transducer and activator of transcription 1-alpha/beta (P42224 whole entry): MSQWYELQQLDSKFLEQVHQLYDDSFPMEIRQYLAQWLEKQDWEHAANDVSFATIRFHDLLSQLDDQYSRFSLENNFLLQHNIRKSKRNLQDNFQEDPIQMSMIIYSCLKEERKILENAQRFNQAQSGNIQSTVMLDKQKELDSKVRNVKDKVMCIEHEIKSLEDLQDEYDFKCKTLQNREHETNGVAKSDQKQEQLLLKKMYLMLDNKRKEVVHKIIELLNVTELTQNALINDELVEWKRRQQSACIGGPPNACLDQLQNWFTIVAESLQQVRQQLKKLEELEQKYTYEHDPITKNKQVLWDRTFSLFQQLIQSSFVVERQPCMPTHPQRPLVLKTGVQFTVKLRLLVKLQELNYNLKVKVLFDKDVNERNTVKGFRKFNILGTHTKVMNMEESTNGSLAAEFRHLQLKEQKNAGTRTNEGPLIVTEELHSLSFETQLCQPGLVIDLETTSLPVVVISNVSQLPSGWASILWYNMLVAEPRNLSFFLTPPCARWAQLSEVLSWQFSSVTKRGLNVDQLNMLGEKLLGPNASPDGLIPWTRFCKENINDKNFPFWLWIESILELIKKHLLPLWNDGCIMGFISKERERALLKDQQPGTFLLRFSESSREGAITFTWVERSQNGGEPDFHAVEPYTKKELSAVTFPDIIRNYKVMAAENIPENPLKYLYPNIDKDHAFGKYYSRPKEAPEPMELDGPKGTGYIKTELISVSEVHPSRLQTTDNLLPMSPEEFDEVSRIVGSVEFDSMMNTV
Chain of Protein cereblon/Signal transducer and activator of transcription 1-alpha/beta (Q96SW2 whole entry): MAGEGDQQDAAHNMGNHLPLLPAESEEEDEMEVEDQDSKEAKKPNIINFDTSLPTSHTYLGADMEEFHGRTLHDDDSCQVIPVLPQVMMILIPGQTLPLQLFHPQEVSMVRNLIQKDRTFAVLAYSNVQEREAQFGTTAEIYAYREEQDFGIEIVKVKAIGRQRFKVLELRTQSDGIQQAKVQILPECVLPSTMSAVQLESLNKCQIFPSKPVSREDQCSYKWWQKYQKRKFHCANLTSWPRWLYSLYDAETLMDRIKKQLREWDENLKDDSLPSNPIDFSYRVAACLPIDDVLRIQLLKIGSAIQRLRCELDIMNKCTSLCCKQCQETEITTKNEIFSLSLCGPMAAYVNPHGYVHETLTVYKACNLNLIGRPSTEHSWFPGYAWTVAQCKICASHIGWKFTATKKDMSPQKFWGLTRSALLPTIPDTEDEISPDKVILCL

Chain of Protein cereblon/Signal transducer and activator of transcription 3 (P40763 whole entry): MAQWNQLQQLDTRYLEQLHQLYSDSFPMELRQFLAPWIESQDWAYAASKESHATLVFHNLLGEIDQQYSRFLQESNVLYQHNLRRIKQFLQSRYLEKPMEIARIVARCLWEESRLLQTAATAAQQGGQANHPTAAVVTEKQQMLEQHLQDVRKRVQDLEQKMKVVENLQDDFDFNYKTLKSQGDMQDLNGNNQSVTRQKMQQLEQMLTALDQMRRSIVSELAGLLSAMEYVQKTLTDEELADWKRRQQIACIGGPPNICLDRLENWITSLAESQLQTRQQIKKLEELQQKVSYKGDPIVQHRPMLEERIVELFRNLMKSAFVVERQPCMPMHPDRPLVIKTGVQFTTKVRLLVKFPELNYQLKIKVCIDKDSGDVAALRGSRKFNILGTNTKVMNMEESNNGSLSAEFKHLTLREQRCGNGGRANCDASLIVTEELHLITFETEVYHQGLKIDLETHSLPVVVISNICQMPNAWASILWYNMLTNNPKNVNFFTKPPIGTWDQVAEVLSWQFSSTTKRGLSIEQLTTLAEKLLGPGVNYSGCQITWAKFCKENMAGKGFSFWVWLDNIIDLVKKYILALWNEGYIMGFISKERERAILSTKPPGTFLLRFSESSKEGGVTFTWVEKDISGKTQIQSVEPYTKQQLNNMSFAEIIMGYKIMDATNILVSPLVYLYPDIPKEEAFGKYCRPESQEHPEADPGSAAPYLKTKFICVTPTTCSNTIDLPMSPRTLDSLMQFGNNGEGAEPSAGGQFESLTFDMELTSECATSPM
Chain of Protein cereblon/Signal transducer and activator of transcription 3 (Q96SW2 whole entry): as the sequence (Q96SW2 whole entry) above

SMILES | DC50 [1] [nM] | DC50 [2] [nM]
CC(C)(C)c1ccc(C[C@H](NC(=O)[C@H](CCC(N)=O)NC(=O)[C@@H]2CC[C@@H]3CCN(CC(F)F)C[C@H](NC(=O)c4cc5cc(C(F)(F)P(=O)(O)O)ccc5s4)C(=O)N32)C(=O)N2CCC(CCC#Cc3cccc4c3CN(C3CCC(=O)NC3=O)C4=O)CC2)cc1 (some centres not stated) | < 250 | < 250
CCN1CC[C@H]2CC[C@@H](C(=O)N[C@@H](CCC(N)=O)C(=O)N[C@@H](Cc3ccc(S(=O)(=O)c4ccccc4)cc3)C(=O)N3CCC(CCC#Cc4cccc5c4CN(C4CCC(=O)NC4=O)C5=O)CC3)N2C(=O)[C@@H](NC(=O)c2cc3cc(C(F)(F)P(=O)(O)O)ccc3s2)C1 (some centres not stated) | < 250 | 250
COC(=O)N1CC[C@H]2CC[C@@H](C(=O)N[C@@H](CCC(N)=O)C(=O)N[C@@H](Cc3ccc(C(C)(C)C)cc3)C(=O)N3CCC(CCC#Cc4cccc5c4CN(C4CCC(=O)NC4=O)C5=O)CC3)N2C(=O)[C@@H](NC(=O)c2cc3cc(C(F)(F)P(=O)(O)O)ccc3s2)C1 (some centres not stated) | < 250 | 250
CCN1CC[C@H]2CC[C@@H](C(=O)N[C@@H](CCC(N)=O)C(=O)N[C@@H](Cc3ccc(S(=O)(=O)C4CC4)cc3)C(=O)N3CCC(CCC#Cc4cccc5c4CN(C4CCC(=O)NC4=O)C5=O)CC3)N2C(=O)[C@@H](NC(=O)c2cc3cc(C(F)(F)P(=O)(O)O)ccc3s2)C1 (some centres not stated) | < 250 | 500
CCN1CC[C@H]2CC[C@@H](C(=O)N[C@@H](CCC(N)=O)C(=O)N[C@@H](Cc3ccc(NS(=O)(=O)c4ccc(C)cc4)cc3)C(=O)N3CCC(CCC#Cc4cccc5c4CN(C4CCC(=O)NC4=O)C5=O)CC3)N2C(=O)[C@@H](NC(=O)c2cc3cc(C(F)(F)P(=O)(O)O)ccc3s2)C1 (some centres not stated) | < 250 | 250
CCN1CC[C@H]2CC[C@@H](C(=O)N[C@@H](CNC(N)=O)C(=O)N[C@@H](Cc3ccc(C(C)(C)C)cc3)C(=O)N3CCC(CCC#Cc4cccc5c4CN(C4CCC(=O)NC4=O)C5=O)CC3)N2C(=O)[C@@H](NC(=O)c2cc3cc(C(F)(F)P(=O)(O)O)ccc3s2)C1 (some centres not stated) | < 250 | > 1000
